Where two headings read alike, the source gives them in different places.
System: Human peripheral blood mononuclear cells (PBMC)
Assay: Cytokine induction in human cells (PBMC), cytokines by ELISA / multiplex bead assay
Format: cell-based
Conditions: for minimal effective concentration: human PBMC, 21-24 hours, lowest concentration giving cytokine level at least 2x negative control; for cytokine production (statement in words): IFN-alpha, IFN-gamma, TNF-alpha
Protocol: Whole blood was obtained from healthy human donors and collected by venipuncture into vacutainer tubes or syringes containing EDTA. Human peripheral blood mononuclear cells (PBMC) were purified from the whole blood by density gradient centrifugation. Histopaque 1077 (15 mL, Sigma, St. Louis, Mo.) was transferred to 6×50 mL sterile polypropylene conical tubes. The Histopaque was overlayed with 15-25 mL of blood diluted 1:2 in Hank's Balanced Salts Solution (HBSS) (Gibco, Life Technologies, Grand Island, N.Y.). The tubes were then centrifuged at 1370 revolutions per minute (rpm) for 30 minutes at 20° C., with no brake (400×g, GH 3.8 A Rotor).
The interface (buffy coat) containing the PBMC was collected and placed in a new sterile 50 mL conical polypropylene centrifuge tube. The PBMC were mixed with an equal volume of HBSS (about 20 mL from the interface and about 20 mL of HBSS), and then centrifuged at 1090 rpm, 10 minutes, 20° C., with brake (270×g, GH 3.8 A Rotor). After completing centrifugation, the cells were resuspended in 2-3 mL ACK Red blood cell lysis buffer (ammonium chloride potassium solution, Gibco, Life Technologies) and incubated for 2-5 minutes at 20° C. Next, HBSS (40 mL) was added to the cells, and the sample was centrifuged at 270×g for 10 minutes at 20° C. The supernatant was decanted, and the cell pellet was resuspended in 5 mL AIM V Medium (Gibco, Life Technologies). Cell aggregates and debris were removed by filtering the cell solution through a BD Falcon 70 micron nylon cell strainer (BD Biosciences, San Jose, Calif.).
The number of viable cells was determined by counting with a Miltenyi FACS instrument (Miltenyi Biotec Inc., San Diego, Calif.) or by using a hemacytometer. For determining cell viability with a hemacytometer, the cells were diluted 1/10 in 0.4% trypan blue and HBSS (specifically, 50 microliter of trypan blue+40 microliter of HBSS+10 microliter of cell solution were added to a microfuge tube and mixed). Ten microliters of the diluted cells were then applied to the hemacytometer, and the number of viable PBMC were determined by microscopy.
The PBMC sample was then resuspended in 96-well plates at a concentration of 8×10^5 cells/well in 0.1 mL of AIM-V medium. Each compound was solubilized in dimethyl sulfoxide (DMSO) to create a 3 mM stock solution. The stock solution was then further diluted with AIM-V medium to prepare the serial dilutions. The diluted compound (100 microliters) was then transferred to the PBMCs to produce testing sets with final compound concentrations of either 30, 10, 3.3, 1.1, 0.37, 0.12, 0.04, 0.01 micromolar (testing set A); 100, 30, 10, 3.3, 1.1, 0.37, 0.12, 0.04, 0.01, 0.005 micromolar (testing set B); 100, 33.3, 11.1, 3.7, 1.2, 0.41 micromolar (testing set C); or 100, 50, 30, 10, 3.3, 1.1, 0.37, 0.12, 0.04 micromolar (testing set D). The plates also had both positive and negative controls. The negative control wells contained only AIM-V medium with no example compound. The positive control wells contained a control set of imiquimod serially diluted to concentrations of either 30, 10, 3.3, 1.1, 0.37, 0.12, 0.04, 0.01 micromolar (control set A); 100, 30, 10, 3.3, 1.1, 0.37, 0.12, 0.04, 0.01, 0.005 micromolar (control set B); 100, 33.3, 11.1, 3.7, 1.2, 0.41 micromolar (control set C); or 100, 50, 30, 10, 3.3, 1.1, 0.37, 0.12, 0.04 micromolar (control set D). The concentrations used in the control set were selected to match the concentrations used in the testing set. The plates were then cultured at 37° C./5% CO2 for 21-24 hours. Cell-free supernatants were harvested by centrifuging the 96-well plates at 2100 rpm, 23° C. for 10 minutes. Approximately 160 microliters of the supernatant was then stored in a NUNC 96-well plate, covered with the compression cap and stored at −80° C. until the cytokine analysis was done.
IFN-alpha cytokine levels (picograms/mL) were measured by ELISA (human IFN-alpha, pan specific, Mabtech, Cincinnati, Ohio). […]

[1] = ELISA, read-out: MEC to Induce Cytokine: IFN-alpha
[2] = multiplex bead assay, read-out: MEC to Induce Cytokine: IFN-gamma
[3] = multiplex bead assay, read-out: MEC to Induce Cytokine: TNF-alpha

| Compound | minimal effective concentration [1] [µM] | minimal effective concentration [2] [µM] | minimal effective concentration [3] [µM] | cytokine production (statement in words) |
| --- | --- | --- | --- | --- |
| CCC[C@@H](n1cnc2c(N)nc3ccccc3c21)C(C)(C)O [Example 13, (3R)-3-(4-aminoimidazo[4,5-c]quinolin-1-yl)-2-methyl-hexan-2-ol] | ≤ 0.41 | ≤ 0.41 | ≤ 0.41 | – |
| C[C@H](n1cnc2c(N)nc3ccccc3c21)C(C)(C)F [Example 21, 1-[(1S)-2-fluoro-1,2-dimethyl-propyl]imidazo[4,5-c]quinolin-4-amine] | > 100 | > 100 | > 100 | inactive toward cytokine production |
| C[C@H](n1cnc2c(N)nc3ccccc3c21)C(C)(C)O [Example 10, (3S)-3-(4-aminoimidazo[4,5-c]quinolin-1-yl)-2-methyl-butan-2-ol] | > 30 | > 30 | > 30 | inactive toward cytokine production |
| CC(C)[C@H](C)n1cnc2c(N)nc3ccccc3c21 [Example 2, 1-[(1S)-1,2-dimethylpropyl]imidazo[4,5-c]quinolin-4-amine] | > 100 | > 100 | > 100 | inactive toward cytokine production |
| CC(C)(O)Cn1cnc2c(N)nc3ccccc3c21 [Comparative Example 2, 1-(4-aminoimidazo[4,5-c]quinolin-1-yl)-2-methyl-propan-2-ol, reference compound] | 10 | 10 | 10 | – |
| CCC[C@H](n1cnc2c(N)nc3ccccc3c21)C(C)(C)O [Example 14, (3S)-3-(4-aminoimidazo[4,5-c]quinolin-1-yl)-2-methyl-hexan-2-ol] | > 30 | > 30 | > 30 | inactive toward cytokine production |
| CC[C@H](n1cnc2c(N)nc3ccccc3c21)C(C)(C)O [Example 12, (3S)-3-(4-aminoimidazo[4,5-c]quinolin-1-yl)-2-methyl-pentan-2-ol] | > 100 | > 100 | > 100 | inactive toward cytokine production |
| CC(C)Cn1cnc2c(N)nc3ccccc3c21 [Comparative Example 1, 1-isobutylimidazo[4,5-c]quinolin-4-amine, reference compound] | 11.1 | 11.1 | 11.1 | – |
| C[C@@H](n1cnc2c(N)nc3ccccc3c21)C(C)(C)F [Example 20, 1-[(1R)-2-fluoro-1,2-dimethyl-propyl]imidazo[4,5-c]quinolin-4-amine] | 10 | 30 | 10 | – |
| CC(C)[C@@H](C)n1cnc2c(N)nc3ccccc3c21 [Example 1, 1-[(1R)-1,2-dimethylpropyl]imidazo[4,5-c]quinolin-4-amine] | 3.7 | 3.7 | 1.2 | – |
| CC[C@@H](n1cnc2c(N)nc3ccccc3c21)C(C)(C)O [Example 11, (3R)-3-(4-aminoimidazo[4,5-c]quinolin-1-yl)-2-methyl-pentan-2-ol] | 1.1 | 3.3 | 1.1 | – |
| C[C@@H](n1cnc2c(N)nc3ccccc3c21)C(C)(C)C [Example 3, 1-[(1R)-1,2,2-trimethylpropyl]imidazo[4,5-c]quinolin-4-amine] | 1.2 | 1.2 | 1.2 | – |
| C[C@H](C1CCCCC1)n1cnc2c(N)nc3ccccc3c21 [Example 5, 1-[(1R)-1-cyclohexylethyl]imidazo[4,5-c]quinolin-4-amine] | 0.41 | 1.2 | 0.41 | – |
| CC(C)C[C@@H](n1cnc2c(N)nc3ccccc3c21)C(C)(C)O [Example 17, (3R)-3-(4-aminoimidazo[4,5-c]quinolin-1-yl)-2,5-dimethyl-hexan-2-ol] | 10 | 10 | 10 | – |
| C[C@@H](n1cnc2c(N)nc3ccccc3c21)C(C)(C)O [Example 9, (3R)-3-(4-aminoimidazo[4,5-c]quinolin-1-yl)-2-methyl-butan-2-ol] | 3.3 | 3.3 | 10 | – |
| CC(C)C[C@H](n1cnc2c(N)nc3ccccc3c21)C(C)(C)O [Example 18, (3S)-3-(4-aminoimidazo[4,5-c]quinolin-1-yl)-2,5-dimethyl-hexan-2-ol] | > 100 | > 100 | > 100 | inactive toward cytokine production |
| C[C@H](n1cnc2c(N)nc3ccccc3c21)C(C)(C)C [Example 4, 1-[(1S)-1,2,2-trimethylpropyl]imidazo[4,5-c]quinolin-4-amine] | > 100 | > 100 | > 100 | inactive toward cytokine production |
| CCC(O)(CC)[C@@H](C)n1cnc2c(N)nc3ccccc3c21 [Example 19, (2R)-2-(4-aminoimidazo[4,5-c]quinolin-1-yl)-3-ethyl-pentan-3-ol] | 1.1 | 3.3 | 1.1 | – |
| CCCC[C@H](C(C)C)n1cnc2c(N)nc3ccccc3c21 [Example 7, 1-[(1R)-1-isopropylpentyl]imidazo[4,5-c]quinolin-4-amine] | 0.12 | > 30 | 0.12 | – |
| CCCC[C@H](n1cnc2c(N)nc3ccccc3c21)C(C)(C)O [Example 16, (3S)-3-(4-aminoimidazo[4,5-c]quinolin-1-yl)-2-methyl-heptan-2-ol] | > 100 | > 100 | > 100 | inactive toward cytokine production |
| CCCC[C@@H](n1cnc2c(N)nc3ccccc3c21)C(C)(C)O [Example 15, (3R)-3-(4-aminoimidazo[4,5-c]quinolin-1-yl)-2-methyl-heptan-2-ol] | ≤ 0.04 | 0.12 | 0.12 | – |
| CCCC[C@@H](n1cnc2c(N)nc3ccccc3c21)C(C)(C)C [Example 8, 1-[(1R)-1-tert-butylpentyl]imidazo[4,5-c]quinolin-4-amine] | 0.04 | > 30 | 0.04 | – |

Reference: patent US20220177471A1, “N-1 BRANCHED ALKYL SUBSTITUTED IMIDAZO[4,5-C]QUINOLINE COMPOUNDS, COMPOSITIONS, AND METHODS” (3M INNOVATIVE PROPERTIES COMPANY, priority 2019, published 2022)
